Counter-ions that a name gives are not always drawn.

`CC1CCCC1` [methylcyclopentane] displayed a flash point of -24.00 °C. As to `CCCCCCCCCCCCC` [tridecane], the flash point is 79.00 °C.

The source holds these as a separate data set.
In turn, `CC(Cl)(Cl)[N+](=O)[O-]` [1,1-Dichloro-1-nitroethane] displayed a flash point of 76.00 °C. On the same count and under the same terms, to `Clc1cc(Cl)c(Cl)cc1Cl` [1,2,4,5-Tetrachlorobenzene] belongs 155.00 °C.

`CC(Cl)CCl` (stereo not given) [1,2-Dichloropropane]: the flash point was 16.00 °C. On the same count and under the same terms, under `CC(O)CO` (stereo not given) [1,2-Propanediol] stands 99.00 °C; under `CC(Cl)=CCCl` [1,3-Dichloro-2-butene], 27.00 °C; under `C=CCC=CC` [1,4-Hexadiene], -21.00 °C. The same measure, in the same setting: under `C=CCC` [1-Butene] stands -80.00 °C; under `CCC(Cl)[N+](=O)[O-]` (stereo not given) [1-Chloro-1-nitropropane], 62.00 °C.

Consider `O=[N+]([O-])c1ccc(Cl)c([N+](=O)[O-])c1` [1-Chloro-2,4-dinitrobenzene], for which the flash point is 194.00 °C.

Turning to `Nc1cccc2ccccc12` [1-Naphthylamine], the flash point amounted to 157.00 °C. The compound `CCC[N+](=O)[O-]` [1-Nitropropane] registered a flash point of 49.00 °C.

Regarding `Oc1ccc(Cl)cc1Cl` [2,4-Dichlorophenol], the flash point is 114.00 °C. Same read-out and setting: under `CC=CC=CC=O` [2,4-Hexadienal] stands 68.00 °C; under `CCCCC(CC)CO` (stereo not given) [2-Ethyl hexanol], 84.00 °C; under `OCCS` [2-Mercaptoethanol], 74.00 °C. On the same count and under the same terms, under `Cc1ccco1` [2-Methyl furan] stands -30.00 °C; under `Cc1ccccn1` [2-Picoline], 39.00 °C.

Compound `C1=COCCC1` [3,4-Dihydro-2H-pyran] showed a flash point of -18.00 °C. Still for that read-out and setting: to `Cc1ccncc1` [4-Picoline] belongs 57.00 °C; to `CC(=O)Nc1ccccc1` [Acetanilide], 174.00 °C; to `CC(C)(O)C#N` [Acetone cyanohydrin], 74.00 °C. Still for that read-out and setting: to `C=CC(=O)O` [Acrylic acid] belongs 52.00 °C.

The compound `N#Cc1ccccc1` [Benzonitrile] had a flash point of 85.00 °C. Regarding `O=C(Cl)c1ccccc1` [Benzoyl chloride], the flash point was found to be 72.00 °C. In turn, `NCc1ccccc1` [Benzylamine] displayed a flash point of 63.00 °C. Still for that read-out and setting: to `c1ccc(-c2ccccc2)cc1` [Biphenyl] belongs 113.00 °C.

The compound `Brc1ccccc1` [Bromobenzene] gave a flash point of 51.00 °C. Consider `CCCCS` [Butyl mercaptan], for which the flash point stood at 2.00 °C. Still for that read-out and setting: under `C=C(C)C(=O)OCCCC` [Butyl methacrylate] stands 52.00 °C. `CCCCCC(=O)O` [Caproic acid] showed a flash point of 102.00 °C. On the same count and under the same terms, under `S=C=S` [Carbon disulphide] stands -30.00 °C; under `O=CCCl` [Chloroacetaldehyde], 88.00 °C. The same measure, in the same setting: to `Clc1cccc2ccccc12` [Chloronaphthalene] belongs 132.00 °C. `C/C=C/C=O` [Crotonaldehyde] gave a flash point of 13.00 °C. Compound `CC(C)c1ccccc1` [Cumene] returned a flash point of 44.00 °C.

The compound `O=C1CCCCC1` [Cyclohexanone] registered a flash point of 44.00 °C. Turning to `O=C1CCCC1` [Cyclopentanone], the flash point worked out at 26.00 °C. Same read-out and setting: to `CC(=O)CC(C)(C)O` [Diacetone alcohol] belongs 64.00 °C; to `CCCCOC(=O)C(=O)OCCCC` [Dibutyl oxalate], 104.00 °C.

`CCCCOC(=O)c1ccccc1C(=O)OCCCC` [Dibutyl phthalate]: the flash point amounted to 157.00 °C. Compound `CCCCOC(=O)C(O)C(O)C(=O)OCCCC` (stereo not given) [Dibutyl tartrate] displayed a flash point of 91.00 °C. Same read-out and setting: under `O=C(Cl)C(Cl)Cl` [Dichloroacetyl chloride] stands 66.00 °C; under `C1CCC(NC2CCCCC2)CC1` [Dicyclohexylamine], 99.00 °C. The same measure, in the same setting: under `NCCNCCN` [Diethylenetriamine] stands 102.00 °C. Same read-out and setting: to `CC(C)CC(O)CC(C)C` [Diisobutyl carbinol] belongs 74.00 °C.

As to `COC(C)(C)OC` [Dimethoxypropane], the flash point is -7.00 °C.

In the case of `COC(=O)OC` [Dimethyl carbonate], the flash point amounted to 19.00 °C. With `COC(=O)c1ccccc1C(=O)OC` [Dimethyl phthalate], the flash point was 146.00 °C. Same read-out and setting: to `COC(C)COC(C)CO` (stereo not given) [Dipropylene glycol methyl ether] belongs 85.00 °C; to `ClCC1CO1` (stereo not given) [Epichlorohydrin], 41.00 °C; to `CCCC(=O)Nc1ccccc1` [Ethyl acetanilide], 52.00 °C.

`CCOC(=O)CC(C)=O` [Ethyl acetoacetate] showed a flash point of 84.00 °C. `CCCCCC(=O)CC` [Ethyl amyl ketone] came in with a flash point of 57.00 °C. The same measure, in the same setting: under `CCOC(=O)CCl` [Ethyl chloroacetate] stands 66.00 °C. The compound `C/C=C/C(=O)OCC` [Ethyl crotonate] had a flash point of 2.00 °C. Same read-out and setting: to `CCOC(=O)CC` [Ethyl propionate] belongs 12.00 °C; to `OCCCl` [Ethylene chlorohydrin], 60.00 °C.

As to `NC=O` [Formamide], the flash point is 155.00 °C.

The compound `O=Cc1ccco1` [Furfural] displayed a flash point of 60.00 °C. The same measure, in the same setting: to `OCC(O)CO` [Glycerol] belongs 160.00 °C; to `CC(=O)CC(C)C` [Isobutyl methyl ketone], 17.00 °C. Still for that read-out and setting: under `C=CC(=C)C` [Isoprene] stands -54.00 °C; under `C=CC(=O)OC` [Methyl acrylate], -3.00 °C; under `CCC(C)=O` [Methyl ethyl ketone], -7.00 °C. The same measure, in the same setting: to `CC(=O)CC(C)C` [Methyl isobutyl ketone] belongs 23.00 °C.

Consider `COC(=O)C(C)C` [Methyl isobutyrate], for which the flash point came to 13.00 °C. Compound `C=C(C)C(=O)OC` [Methyl methacrylate] registered a flash point of 10.00 °C. Same read-out and setting: under `CCCC(C)=O` [Methyl-n-Propyl ketone] stands 7.00 °C; under `CN(C)c1ccccc1` [N,N-Dimethylaniline ], 63.00 °C; under `c1ccc2ccccc2c1` [Naphthalene], 79.00 °C. In turn, `Oc1ccccc1` [Phenol] returned a flash point of 79.00 °C. The same measure, in the same setting: under `NCC(O)c1ccccc1` (stereo not given) [Phenylethanolamine] stands 152.00 °C; under `NNc1ccccc1` [Phenylhydrazine], 89.00 °C. Same read-out and setting: to `CC(C)=CC(=O)C=C(C)C` [Phorone] belongs 85.00 °C; to `C=CC=CC` [Piperylene], -43.00 °C; to `CCCc1ccccc1` [Propyl benzene], 30.00 °C.

In turn, `c1ccncc1` [Pyridine] came in with a flash point of 20.00 °C. The compound `Oc1cccc(O)c1` [Resorcinol] displayed a flash point of 127.00 °C. The compound `O=C(O)c1ccccc1O` [Salicylic acid] showed a flash point of 157.00 °C. `NCCNCCNCCNCCN` [Tetraethylenepentamine] gave a flash point of 163.00 °C.

As to `c1ccc2c(c1)CCCC2` [Tetrahydronaphthalene], the flash point amounted to 71.00 °C. The compound `c1ccsc1` [Thiophene] had a flash point of -1.00 °C.

`OCCN(CCO)CCO` [Triethanolamine]: the flash point is 179.00 °C. Take `CN(C)C` [Trimethyl amine]: the flash point is -7.00 °C.

`O=P(Oc1ccccc1)(Oc1ccccc1)Oc1ccccc1` [Triphenyl phosphate] displayed a flash point of 220.00 °C.

In turn, `c1ccc(P(c2ccccc2)c2ccccc2)cc1` [Triphenyl phosphine] returned a flash point of 180.00 °C. As for `C=CCl` [Vinyl chloride], the flash point was -78.00 °C. With `Cc1cccc(N)c1C` [Xylidine], the flash point turned out to be 97.00 °C. Same read-out and setting: to `CC(C)CCO[N+](=O)[O-]` [iso-Amyl nitrate] belongs 52.00 °C. On the same count and under the same terms, under `CC(=O)OCC(C)C` [iso-Butyl acetate] stands 18.00 °C. On the same count and under the same terms, under `Cc1cccc([N+](=O)[O-])c1` [m-Nitrotoluene] stands 106.00 °C. `c1ccc(-c2cccc(-c3ccccc3)c2)cc1` [m-Terphenyl]: the flash point was 135.00 °C. As for `Cc1cccc(N)c1` [m-Toluidine], the flash point was determined as 86.00 °C. Still for that read-out and setting: to `Cc1cccc(C)c1` [m-Xylene] belongs 29.00 °C; to `CCCCCCCN` [n-Heptylamine], 54.00 °C; to `CCCOC(C)=O` [n-Propyl acetate], 14.00 °C. Regarding `COc1ccccc1C=O` [o-Anisaldehyde], the flash point came to 118.00 °C. The compound `Cc1ccccc1Br` [o-Bromotoluene] displayed a flash point of 79.00 °C.

`Oc1ccccc1Cl` [o-Chlorophenol] had a flash point of 64.00 °C. Same read-out and setting: under `Nc1ccccc1[N+](=O)[O-]` [o-Nitroaniline] stands 168.00 °C. For `Cc1ccccc1[N+](=O)[O-]` [o-Nitrotoluene], the flash point was 106.00 °C.

In turn, `c1ccc(-c2ccccc2-c2ccccc2)cc1` [o-Terphenyl] gave a flash point of 163.00 °C. Turning to `Cc1ccccc1N` [o-Toluidine], the flash point was determined as 85.00 °C. In the case of `Cc1ccc(O)cc1` [p-Cresol], the flash point turned out to be 94.00 °C.

The source holds these as a separate data set.
As for `CC1CCCC1` [methylcyclopentane], the flash point is -29 °C. `CCCCCCCCCCCCC` [tridecane] gave a flash point of 102 °C.

This is another data set of the same source.
`CC1CCCC1` [methylcyclopentane] returned a flash point of -23 °C.

For the compound `CCCCCCCCCCCCC` [tridecane], the flash point stood at 94 °C.

The record behind these values is a flash point compilation (Sun et al. 2020).
